Patent US20260199323A1, “LIGAND COMPOUNDS FOR E3 UBIQUITIN LIGASE, PROTEIN DEGRADERS DEVELOPED ON BASIS OF LIGAND COMPOUNDS, AND USES THEREOF” (GLUETACS THERAPEUTICS (SHANGHAI) CO., LTD., priority 2021, published 2026)
Like-named read-outs stand apart in the source and are kept apart here.

What was measured:
T47D = assay: CCK-8 tumor cell proliferation, T47D; type: cell-based, Human; conditions: for IC50: Homo sapiens, T47D
Description: (§1) The tumor cells used herein were cultured in a cell culture medium listed in table 4 at 37° C. in an incubator with 5% CO2. Prior to experimentation, all cells used were correctly identified by STR profiling, and tested negative for mycoplasma through routine screenings.
(§2) IC50 values of the compounds of the present disclosure (including the compounds in Tables 1 and 3, and compounds of examples) were measured using the Meilun Cell Counting Kit-8 kit from Dalian Meilun Biotech Co., Ltd. Assay details are as follows: tumor cells were seeded in a 96-well plate at a density listed in Table 5. After 24 h, 100 μL of the inoculated cells were treated with 0.5 μL of the compounds of the present disclosure (including the compounds in Tables 1 and 3, and compounds of examples) at 10 different successively decreasing concentrations (starting at the highest concentration of 10 μM; 5-fold serial dilutions). After the cells were treated with the compounds of the present disclosure for a period of time, the cell viability detection reagent was added to the culture medium for cell viability assessment according to the instructions provided with the CCK-8 kit. […] The growth inhibition of the compounds of the present disclosure on cells was plotted by Prism Graphpad software, and the IC50 values of the compounds of the present disclosure were calculated therefrom.

HCC827 = assay: CCK-8 tumor cell proliferation, HCC827; type: cell-based, Human; conditions: Table 8, designed based on ER inhibitors, 96 h
Description: The tumor cells used herein were cultured in a cell culture medium listed in table 4 at 37° C. in an incubator with 5% CO2.
as §2, with “After” for “IC50 values of the compounds of the present disclosure (including the compounds in Tables 1 and 3, and compounds of examples) were measured using the Meilun Cell Counting Kit-8 kit from Dalian Meilun Biotech Co., Ltd. Assay details are as follows: tumor cells were seeded in a 96-well plate at a density listed in Table 5. After”

CCRF-CEM = assay: CCK-8 tumor cell proliferation, CCRF-CEM; type: cell-based, Human; set-up: IC50 for inhibiting the proliferation of tumor cells, CCRF-CEM: scale not given here; conditions: for IC50: Homo sapiens, CCRF-CEM
Outline: (§3)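 STR-authenticated, mycoplasma-negative cells were cultured at 37 °C with 5% CO2. One day after plating, they were treated with a 5-fold serial dilution of compound (10 points, highest 10 μM). CCK-8 was used to assess viability, giving IC50 values.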

MM.1S = assay: CCK-8 tumor cell proliferation, MM.1S; type: cell-based; conditions: for IC50: Homo sapiens, MM1.S
Outline: as §3

Hep3B2.7-1 = assay: CCK-8 tumor cell proliferation, Hep3B2.7-1; type: cell-based, Human; conditions: Homo sapiens
Description: as §1, §2

SU-DHL-6 = assay: CCK-8 tumor cell proliferation, SU-DHL-6; type: cell-based, Human; conditions: 72 h
Description: as §1, §2

Kasumi-1 = assay: CCK-8 tumor cell proliferation, Kasumi-1; type: cell-based, Human; conditions: for IC50: Homo sapiens, Kasumi-1, read-out: IC50 inhibiting proliferation of tumor cells, Kasumi-1
Outline: as §3

SW620 = assay: CCK-8 tumor cell proliferation, SW620; type: cell-based, Human; conditions: Table 8, designed based on ER inhibitors; 96 h
Outline: as §3

Mino = assay: CCK-8 tumor cell proliferation, Mino; type: cell-based, Human; conditions: 72 h
Outline: as §3

Jurkat = assay: CCK-8 tumor cell proliferation, Jurkat; type: cell-based, Human; conditions: Homo sapiens, read-out: IC50 inhibiting proliferation of tumor cells, Jurkat
Outline: as §3

MM.1R = assay: CCK-8 tumor cell proliferation, MM.1R; type: cell-based; conditions: read-out: IC50 inhibiting proliferation of tumor cells, MM.1R
Outline: as §3

[1] = Table 14, designed based on CDK4/6 inhibitors
[2] = Table 8, designed based on ER inhibitors, 72 h
[3] = Table 8, designed based on ER inhibitors
[4] = Table 8, designed based on ER inhibitors, 96 h
[5] = Table 22, NTRK inhibitor based, read-out: IC50 inhibiting proliferation of tumor cells, T47D
[6] = Table 22, NTRK inhibitor based, read-out: IC50 inhibiting proliferation of tumor cells, CCRF-CEM
[7] = Table 22, NTRK inhibitor based, MM.1S, read-out: IC50 inhibiting proliferation of tumor cells, MM.1S
[8] = Table 22, NTRK inhibitor based, HEP3B2.7-1, read-out: IC50 inhibiting proliferation of tumor cells, HEP3B2.7-1

CC/C(=C(/c1ccc(O)cc1)c1ccc(OCCN)cc1)c1ccc(O)cc1 [GT-03308, reference compound]
> 10000 nM: IC50 (T47D; Table 8, designed based on ER inhibitors, 96 h, read-out: IC50 for inhibiting the proliferation of tumor cells, T47D) | IC50 (HCC827; Homo sapiens, HCC827, read-out: IC50 for inhibiting the proliferation of tumor cells, HCC827) | IC50 (CCRF-CEM; Table 8, designed based on ER inhibitors, 96 h, read-out: IC50 for inhibiting the proliferation of tumor cells, CCRF-CEM) | IC50 (MM.1S; Table 8, designed based on ER inhibitors, 72 h, read-out: IC50 for inhibiting the proliferation of tumor cells, MM.1S) | IC50 (Hep3B2.7-1; Table 8, designed based on ER inhibitors, 96 h, read-out: IC50 for inhibiting the proliferation of tumor cells, Hep3B2.7-1)

CN(C)C(=O)c1cc2cnc(Nc3ccc(N4CCC(N(C)Cc5ccc6c(c5)CN(C5CCC(=O)NC5=O)C6=O)CC4)cn3)nc2n1C1CCCC1 (stereo not shown) [GT-03544, 7-cyclopentyl-2-((5-(4-(((2-(2,6-dioxopiperidin-3-yl)-1-oxoisoindolin-5-yl)methyl)(methyl)amino)piperidin-1-yl)pyridin-2-yl)amino)-N,N-dimethyl-7H-pyrrolo[2,3-d]pyrimidine-6-carboxamide]
A+: IC50 for inhibiting the proliferation of tumor cells, SU-DHL-6 (SU-DHL-6; [1])

CCC(=C(c1ccc(O)cc1)c1ccc(N2CCN(Cc3ccc4c(c3)CN(C3CCC(=O)NC3=O)C4=O)CC2)cc1)c1ccc(O)cc1 (stereo not shown) [GT-03551, 3-(5-((4-(4-(1,2-bis(4-hydroxyphenyl)but-1-en-1-yl)phenyl)piperazin-1-yl)methyl)-1-oxoisoindolin-2-yl)piperidine-2,6-dione]
A+: IC50 for inhibiting the proliferation of tumor cells, Kasumi-1 (Kasumi-1; [2]) | IC50 for inhibiting the proliferation of tumor cells, SU-DHL-6 (SU-DHL-6; [3]) | IC50 for inhibiting the proliferation of tumor cells, T47D (T47D; [4]) | IC50 for inhibiting the proliferation of tumor cells, HCC827 (HCC827) | IC50 for inhibiting the proliferation of tumor cells, SW620 (SW620) | IC50 for inhibiting the proliferation of tumor cells, CCRF-CEM (CCRF-CEM; [4]) | IC50 for inhibiting the proliferation of tumor cells, MM.1S (MM.1S; [2]) | IC50 for inhibiting the proliferation of tumor cells, Mino (Mino; [3])

Cc1nc2c(F)cc(-c3nc(Nc4ccc(N5CCC(N(C)Cc6ccc7c(c6)CN(C6CCC(=O)NC6=O)C7=O)CC5)cn4)ncc3F)cc2n1C(C)C (stereo not shown) [GT-03639, 3-(5-(((1-(6-((5-fluoro-4-(4-fluoro-1-isopropyl-2-methyl-1H-benzo[d]imidazol-6-yl)pyrimidin-2-yl)amino)pyridin-3-yl)piperidin-4-yl)(methyl)amino)methyl)-1-oxoisoindolin-2-yl)piperidine-2,6-dione]
A+: IC50 for inhibiting the proliferation of tumor cells, SU-DHL-6 (SU-DHL-6; [1]) | IC50 for inhibiting the proliferation of tumor cells, Mino (Mino; [1])

O=C1CCC(N2Cc3cc(CN4CCN(c5cccc(-c6cnc7ccc(N8CCC[C@@H]8c8cccc(F)c8)nn67)n5)CC4)cc(F)c3C2=O)C(=O)N1 (stereo partly drawn) [GT-03867, 3-(7-fluoro-5-((4-(6-(6-((R)-2-(3-fluorophenyl)pyrrolidin-1-yl)imidazo[1,2-b]pyridazin-3-yl)pyridin-2-yl)piperazin-1-yl)methyl)-1-oxoisoindolin-2-yl)piperidine-2,6-dione]
50 to 100 nM: IC50 (MM.1S; [7])
< 50 nM: IC50 (Kasumi-1; Table 22, NTRK inhibitor based) | IC50 (Jurkat; Table 22, NTRK inhibitor based) | IC50 (CCRF-CEM; [6]) | IC50 (MM.1R; Table 22, NTRK inhibitor based) | IC50 (Hep3B2.7-1; [8])
100 to 500 nM: IC50 (T47D; [5])

O=C1CCC(N2Cc3cc(CN4CCN(c5cccc(-c6cnn7ccc(N8CCC[C@@H]8c8cc(F)ccc8F)nc67)n5)CC4)c(F)cc3C2=O)C(=O)N1 (stereo partly drawn) [GT-04264, 3-(5-((4-(6-(5-((R)-2-(2,5-difluorophenyl)pyrrolidin-1-yl)pyrazolo[1,5-a]pyrimidin-3-yl)pyridin-2-yl)piperazin-1-yl)methyl)-6-fluoro-1-oxoisoindolin-2-yl)piperidine-2,6-dione]
< 50 nM: IC50 (Kasumi-1; Table 22, NTRK inhibitor based) | IC50 (Jurkat; Table 22, NTRK inhibitor based) | IC50 (T47D; [5]) | IC50 (CCRF-CEM; [6]) | IC50 (MM.1R; Table 22, NTRK inhibitor based) | IC50 (MM.1S; [7]) | IC50 (Hep3B2.7-1; [8])

O=C(Nc1cnn2ccc(N3CCC[C@@H]3c3cc(F)ccc3F)nc12)N1CC[C@H](O)C1 [larotrectinib]
> 10000 nM: IC50 (Kasumi-1; Table 22, given as number) | IC50 (Jurkat; Table 22, given as number) | IC50 (T47D; Table 22, given as number, read-out: IC50 inhibiting proliferation of tumor cells, T47D) | IC50 (CCRF-CEM; Table 22, given as number, read-out: IC50 inhibiting proliferation of tumor cells, CCRF-CEM) | IC50 (MM.1R; Table 22, given as number) | IC50 (MM.1S; Table 22, MM.1S, given as number, read-out: IC50 inhibiting proliferation of tumor cells, MM.1S) | IC50 (Hep3B2.7-1; Table 22, HEP3B2.7-1, given as number, read-out: IC50 inhibiting proliferation of tumor cells, HEP3B2.7-1)
